Experimental data taken from the NIST ThermoML archive (doi:10.1021/je901043q).
± gives the expanded uncertainty stated by the source.

Assays:
[1] = 101 kPa, Liquid
[2] = xn = mol fraction of the nth substance listed; details: 101 kPa, Liquid

CCCCn1cc[n+](C)c1.N#C[S-] [1-butyl-3-methylimidazolium thiocyanate]
[1]
Details | mass density [kg/m3] | viscosity [mPa·s]
298.15 K | 1069.79 ± 1 | 51.74 ± 0.55
308.15 K | 1063.89 ± 1 | 34.87 ± 0.96
318.15 K | 1058.02 ± 1 | 24.19 ± 0.68
328.15 K | 1052.19 ± 1 | 16.7 ± 0.48
338.15 K | 1046.43 ± 0.98 | 12.73 ± 0.37
348.15 K | 1040.7 ± 0.97 | 9.98 ± 0.3

CCCCn1cc[n+](C)c1.N#C[S-] [1-butyl-3-methylimidazolium thiocyanate] + CCCCCCCCCO
[2]
Details | mass density [kg/m3] | viscosity [mPa·s]
298.15 K, x1 = 0.1203 | 855.59 ± 0.37 | 12.19 ± 0.34
298.15 K, x1 = 0.2008 | 876.27 ± 0.38 | 14.2 ± 0.39
298.15 K, x1 = 0.2814 | 896.75 ± 0.38 | 16.58 ± 0.45
298.15 K, x1 = 0.3884 | 923.66 ± 0.4 | 20.3 ± 0.54
298.15 K, x1 = 0.5697 | 968.54 ± 0.46 | 28.04 ± 0.75
298.15 K, x1 = 0.6709 | 993.14 ± 0.52 | 32.31 ± 0.86
298.15 K, x1 = 0.7658 | 1015.88 ± 0.63 | –
298.15 K, x1 = 0.8618 | 1038.46 ± 0.79 | 41.61 ± 1.1
298.15 K, x1 = 0.9651 | 1062.11 ± 0.99 | 46.89 ± 1.3
298.15 K, x1 = 1 | 1069.79 ± 1 | 51.74 ± 0.55
308.15 K, x1 = 0.1203 | 848.88 ± 0.38 | 8.664 ± 0.25
308.15 K, x1 = 0.2008 | 869.7 ± 0.38 | 10.14 ± 0.28
308.15 K, x1 = 0.2814 | 890.24 ± 0.38 | 11.81 ± 0.33
308.15 K, x1 = 0.3884 | 917.27 ± 0.4 | 14.3 ± 0.39
308.15 K, x1 = 0.5697 | 962.4 ± 0.46 | 19.35 ± 0.53
308.15 K, x1 = 0.6709 | 987.05 ± 0.52 | 22.23 ± 0.6
308.15 K, x1 = 0.7658 | 1009.89 ± 0.63 | –
308.15 K, x1 = 0.8618 | 1032.53 ± 0.78 | 27.8 ± 0.76
308.15 K, x1 = 0.9651 | 1056.18 ± 0.98 | 31.09 ± 0.86
308.15 K, x1 = 1 | 1063.89 ± 1 | 34.87 ± 0.96
318.15 K, x1 = 0.1203 | 841.98 ± 0.38 | 6.378 ± 0.19
318.15 K, x1 = 0.2008 | 862.96 ± 0.38 | 7.487 ± 0.22
318.15 K, x1 = 0.2814 | 883.74 ± 0.39 | 8.739 ± 0.25
318.15 K, x1 = 0.3884 | 910.89 ± 0.4 | 10.55 ± 0.3
318.15 K, x1 = 0.5697 | 956.26 ± 0.46 | 14.03 ± 0.39
318.15 K, x1 = 0.6709 | 981.02 ± 0.52 | 16.01 ± 0.44
318.15 K, x1 = 0.7658 | 1003.93 ± 0.62 | –
318.15 K, x1 = 0.8618 | 1026.62 ± 0.77 | 19.67 ± 0.55
318.15 K, x1 = 0.9651 | 1050.33 ± 0.96 | 21.81 ± 0.61
318.15 K, x1 = 1 | 1058.02 ± 1 | 24.19 ± 0.68
328.15 K, x1 = 0.1203 | 835.4 ± 0.39 | 4.782 ± 0.15
328.15 K, x1 = 0.2008 | 856.36 ± 0.38 | 5.662 ± 0.17
328.15 K, x1 = 0.2814 | 877.25 ± 0.39 | 6.629 ± 0.2
328.15 K, x1 = 0.3884 | 904.56 ± 0.4 | 8.032 ± 0.23
328.15 K, x1 = 0.5697 | 950.15 ± 0.47 | 10.61 ± 0.3
328.15 K, x1 = 0.6709 | 975 ± 0.52 | 12.04 ± 0.34
328.15 K, x1 = 0.7658 | 998.03 ± 0.61 | –
328.15 K, x1 = 0.8618 | 1020.79 ± 0.76 | 14.55 ± 0.41
328.15 K, x1 = 0.9651 | 1044.5 ± 0.95 | 16.06 ± 0.46
328.15 K, x1 = 1 | 1052.19 ± 1 | 16.7 ± 0.48
338.15 K, x1 = 0.1203 | 828.56 ± 0.39 | 3.695 ± 0.12
338.15 K, x1 = 0.2008 | 849.77 ± 0.39 | 4.408 ± 0.14
338.15 K, x1 = 0.2814 | 870.73 ± 0.39 | 5.139 ± 0.16
338.15 K, x1 = 0.3884 | 898.2 ± 0.41 | 6.237 ± 0.19
338.15 K, x1 = 0.5697 | 944.06 ± 0.47 | 8.26 ± 0.24
338.15 K, x1 = 0.6709 | 969.04 ± 0.52 | 9.33 ± 0.27
338.15 K, x1 = 0.7658 | 992.15 ± 0.61 | –
338.15 K, x1 = 0.8618 | 1014.99 ± 0.75 | 11.22 ± 0.32
338.15 K, x1 = 0.9651 | 1038.73 ± 0.94 | 12.32 ± 0.36
338.15 K, x1 = 1 | 1046.43 ± 0.98 | 12.73 ± 0.37
348.15 K, x1 = 0.1203 | 821.64 ± 0.39 | 2.971 ± 0.11
348.15 K, x1 = 0.2008 | 843.14 ± 0.39 | 3.521 ± 0.12
348.15 K, x1 = 0.2814 | 864.18 ± 0.4 | 4.102 ± 0.13
348.15 K, x1 = 0.3884 | 891.86 ± 0.41 | 4.962 ± 0.16
348.15 K, x1 = 0.5697 | 937.98 ± 0.47 | 6.512 ± 0.2
348.15 K, x1 = 0.6709 | 963.09 ± 0.52 | 7.404 ± 0.22
348.15 K, x1 = 0.7658 | 986.31 ± 0.61 | –
348.15 K, x1 = 0.8618 | 1009.22 ± 0.73 | 8.89 ± 0.26
348.15 K, x1 = 0.9651 | 1032.99 ± 0.92 | 9.74 ± 0.29
348.15 K, x1 = 1 | 1040.7 ± 0.97 | 9.98 ± 0.3

CCCCCCCCCCO [decan-1-ol]
[1]
Details | mass density [kg/m3] | viscosity [mPa·s]
298.15 K | 826.38 ± 0.27 | 11.09 ± 0.31
308.15 K | 819.53 ± 0.28 | 7.632 ± 0.22
318.15 K | 812.62 ± 0.28 | 5.375 ± 0.16
328.15 K | 805.61 ± 0.28 | 3.928 ± 0.13
338.15 K | 798.48 ± 0.29 | 2.964 ± 0.11
348.15 K | 791.21 ± 0.29 | 2.399 ± 0.09

CCCCCCCCCCO [decan-1-ol] + CCCCn1cc[n+](C)c1.N#C[S-]
[2], x2 = 0
Details | mass density [kg/m3] | viscosity [mPa·s]
298.15 K | 826.38 ± 0.27 | 11.09 ± 0.31
308.15 K | 819.53 ± 0.28 | 7.632 ± 0.22
318.15 K | 812.62 ± 0.28 | 5.375 ± 0.16
328.15 K | 805.61 ± 0.28 | 3.928 ± 0.13
338.15 K | 798.48 ± 0.29 | 2.964 ± 0.11
348.15 K | 791.21 ± 0.29 | 2.399 ± 0.09

CCCCCCCO [heptan-1-ol]
[1]
Details | mass density [kg/m3] | viscosity [mPa·s]
298.15 K | 818.81 ± 0.28 | 5.851 ± 0.18
308.15 K | 811.73 ± 0.28 | 4.26 ± 0.14
318.15 K | 804.55 ± 0.28 | 3.184 ± 0.11
328.15 K | 797.22 ± 0.29 | 2.434 ± 0.091
338.15 K | 789.75 ± 0.29 | 1.9 ± 0.078
348.15 K | 782.08 ± 0.3 | 1.512 ± 0.068

CCCCCCCO [heptan-1-ol] + CCCCn1cc[n+](C)c1.N#C[S-]
[2], x2 = 0
Details | mass density [kg/m3] | viscosity [mPa·s]
298.15 K | 818.81 ± 0.28 | 5.851 ± 0.18
308.15 K | 811.73 ± 0.28 | 4.26 ± 0.14
318.15 K | 804.55 ± 0.28 | 3.184 ± 0.11
328.15 K | 797.22 ± 0.29 | 2.434 ± 0.091
338.15 K | 789.75 ± 0.29 | 1.9 ± 0.078
348.15 K | 782.08 ± 0.3 | 1.512 ± 0.068

CCCCCCCCCO [nonan-1-ol]
[1]
Details | mass density [kg/m3] | viscosity [mPa·s]
298.15 K | 824.27 ± 0.27 | 9.343 ± 0.26
308.15 K | 817.36 ± 0.28 | 6.497 ± 0.19
318.15 K | 810.4 ± 0.28 | 4.674 ± 0.15
328.15 K | 803.29 ± 0.28 | 3.452 ± 0.12
338.15 K | 796.1 ± 0.29 | 2.664 ± 0.097
348.15 K | 788.72 ± 0.29 | 2.256 ± 0.087

CCCCCCCCCO [nonan-1-ol] + CCCCn1cc[n+](C)c1.N#C[S-]
[2], x2 = 0
Details | mass density [kg/m3] | viscosity [mPa·s]
298.15 K | 824.27 ± 0.27 | 9.343 ± 0.26
308.15 K | 817.36 ± 0.28 | 6.497 ± 0.19
318.15 K | 810.4 ± 0.28 | 4.674 ± 0.15
328.15 K | 803.29 ± 0.28 | 3.452 ± 0.12
338.15 K | 796.1 ± 0.29 | 2.664 ± 0.097
348.15 K | 788.72 ± 0.29 | 2.256 ± 0.087

CCCCCCCCO [octan-1-ol]
[1]
Details | mass density [kg/m3] | viscosity [mPa·s]
298.15 K | 821.61 ± 0.28 | 7.398 ± 0.21
308.15 K | 814.64 ± 0.28 | 5.285 ± 0.16
318.15 K | 807.57 ± 0.28 | 3.887 ± 0.13
328.15 K | 800.39 ± 0.29 | 2.931 ± 0.1
338.15 K | 793.09 ± 0.29 | 2.262 ± 0.087
348.15 K | 785.59 ± 0.29 | 1.782 ± 0.075

CCCCCCCCO [octan-1-ol] + CCCCn1cc[n+](C)c1.N#C[S-]
[2], x2 = 0
Details | mass density [kg/m3] | viscosity [mPa·s]
298.15 K | 821.61 ± 0.28 | 7.398 ± 0.21
308.15 K | 814.64 ± 0.28 | 5.285 ± 0.16
318.15 K | 807.57 ± 0.28 | 3.887 ± 0.13
328.15 K | 800.39 ± 0.29 | 2.931 ± 0.1
338.15 K | 793.09 ± 0.29 | 2.262 ± 0.087
348.15 K | 785.59 ± 0.29 | 1.782 ± 0.075
